# Laboratory results: patent US10882871B2, “18/19F-labelled compounds which target the prostate specific membrane antigen” (BRITISH COLUMBIA CANCER AGENCY BRANCH, priority 2016, dated 2021)
# Several values for one entry are separate records, joined by “and”; a condition that tells them apart may be missing. Equal entries are not always repeated.
# Tested on: tumors derived from LNCaP cells
# Assay: PET/CT imaging and biodistribution of F-18 labeled HTK-01069 and HTK-01070 in tumor-bearing mice
# Format: in vivo, mouse (NODSCID 1L2RγKO male mice)
# Experimental: LNCap cell line used in the tumor model was obtained commercially from ATTC (LNCaP clone FGC, CRL-1740). It was established from a metastatic site of left supraclavicular lymph node of human prostatic adenocarcinoma. Cells were cultured in PRMI 1640 (StemCell Technologies, Vancouver, BC) supplemented by 10% FBS, 100 U/mL penicillin and 100 μg/mL streptomycin at 37° C. in a humidified incubator containing 5% CO2. Cells grown to 80-90% confluence were then washed with sterile phosphate-buffered saline (1×PBS pH 7.4) and trypsinization. The collected cells number was counted with Hemacytometer (Hausser Scientific).
# Tumor implantation: Imaging and biodistribution experiments were performed using NODSCID 1L2RγKO male mice. Three or four mice in each cage equipped with enrichments. The mice were maintained and the experiments were conducted in according to the guidelines established by Canadian Council on Animal Care and approved by Animal Ethics Committee of the University of British Columbia. Mice were housed under pathogen-free conditions and kept on twelve hours light and twelve hours dark cycle in the Animal Research Centre, British Columbia Cancer Research Centre, Vancouver, Canada.
# Mice were anesthetized by inhalation with 2.5% isoflurane in 2.0 L/min of oxygen during cells implantation. Mice were implanted subcutaneously with 1×10^7 LNCaP cells behind left shoulder. Mice were imaged or used in biodistribution studies when the tumor grew up to reach 5-8 mm in diameter during 5-6 weeks.
# PET/CT Imaging: PET imaging experiments were conducted using Siemens inveon micro PET/CT scanner. Each tumor bearing mouse was injected ˜6.44 MBq of F-18 labeled HTK-01069 and ˜7.08 MBq of F-18 labeled HTK-01070 through the tail vein under anesthesia. After one hour, the mice were sedated again with 2% isoflurane inhalation and positioned in the scanner. Static PET imaging was performed to determined activity uptake of tumor and other organs. A CT scan was obtained for localization and attenuation correction after segmentation for reconstructing the PET images. The data was acquired by scanning the mice for 10 minutes each. The mice were kept warm by a heating pad during acquisition. The mice were euthanized after imaging and followed by biodistribution. Please see FIGS. 2 and 3 of this specification for reconstructed PET images for 1L2RγKO mice injected with HTK-01069 and HTK-01070 respectively.
# Blood was withdrawn immediately, and the organs of interest were quickly removed. Each organ was weighed and the tissue radioactivity was measured with a Cobra II gamma counter (Packard), normalized to the injected dose using a standard curve and expressed as the percentage of the injected dose per gram of tissue (% ID/g). Biodistribution data are shown for HTK-01069 in Tables 5, 6 and 7 and HTK-01070 in Tables 8, 9, 10 of the specification respectively.
# [1] = 1 h p.i. with co-injection of 0.5 mg DCFPyL, Avg
# [2] = 1 h p.i. with co-injection of 0.5 mg DCFPyL, single mice
structure (smiles),measurement,setting,value
C[N+](C)(Cc1ccc(C(=O)NCCCC[C@H](NC(=O)N[C@@H](CCC(=O)O)C(=O)O)C(=O)O)cc1)C[B-](F)(F)[18F] [F-18 HTK-01069],Biodistribution Adrenals,[1],0.35 % ID/g
same,Biodistribution Blood,[1],0.45 % ID/g
same,Biodistribution Bone,[1],0.13 % ID/g
same,Biodistribution Brain,[1],0.03 % ID/g
same,Biodistribution Fat,[1],0.11 % ID/g
same,Biodistribution Heart,[1],0.25 % ID/g
same,Biodistribution Intestine,[1],0.57 % ID/g
same,Biodistribution Kidney,[1],3.54 % ID/g
same,Biodistribution Liver,[1],0.11 % ID/g
same,Biodistribution Lung,[1],0.15 % ID/g
same,Biodistribution Muscle,[1],0.30 % ID/g
same,Biodistribution Pancreas,[1],3.00 % ID/g
same,Biodistribution Seminal,[1],0.38 % ID/g
same,Biodistribution Spleen,[1],0.11 % ID/g
same,Biodistribution Stomach,[1],0.13 % ID/g
same,Biodistribution Tail,[1],0.44 % ID/g
same,Biodistribution Testes,[1],0.10 % ID/g
same,Biodistribution Tumour,[1],0.33 % ID/g
same,Biodistribution Bone,[2],0.15 % ID/g and 0.17 % ID/g and 0.11 % ID/g and 0.10 % ID/g
same,Biodistribution Brain,[2],0.02 % ID/g and 0.03 % ID/g and 0.04 % ID/g
same,Biodistribution Heart,[2],0.17 % ID/g and 0.31 % ID/g and 0.27 % ID/g and 0.26 % ID/g
same,Biodistribution Kidney,[2],2.35 % ID/g and 3.57 % ID/g and 4.08 % ID/g and 4.15 % ID/g
same,Biodistribution Lung,[2],0.10 % ID/g and 0.20 % ID/g and 0.16 % ID/g and 0.13 % ID/g
same,Biodistribution Muscle,[2],0.22 % ID/g and 0.36 % ID/g and 0.37 % ID/g and 0.26 % ID/g
same,Biodistribution Pancreas,[2],2.40 % ID/g and 3.36 % ID/g and 2.71 % ID/g and 3.53 % ID/g
same,Biodistribution Stomach,[2],0.08 % ID/g and 0.13 % ID/g and 0.15 % ID/g
same,Biodistribution Tail,[2],0.43 % ID/g and 0.41 % ID/g and 0.37 % ID/g and 0.55 % ID/g
same,Biodistribution Testes,[2],0.07 % ID/g and 0.13 % ID/g and 0.12 % ID/g and 0.09 % ID/g
same,Biodistribution Tumour,[2],0.30 % ID/g and 0.35 % ID/g and 0.26 % ID/g and 0.42 % ID/g
same,Biodistribution Adrenals,"1 h p.i., Avg",3.98 % ID/g
same,Biodistribution Blood,"1 h p.i., Avg",0.52 % ID/g
same,Biodistribution Bone,"1 h p.i., Avg",0.27 % ID/g
same,Biodistribution Brain,"1 h p.i., Avg",0.03 % ID/g
same,Biodistribution Fat,"1 h p.i., Avg",1.09 % ID/g
same,Biodistribution Heart,"1 h p.i., Avg",1.16 % ID/g
same,Biodistribution Intestine,"1 h p.i., Avg",0.55 % ID/g
same,Biodistribution Kidney,"1 h p.i., Avg",92.90 % ID/g
same,Biodistribution Liver,"1 h p.i., Avg",0.14 % ID/g
same,Biodistribution Lung,"1 h p.i., Avg",0.26 % ID/g
same,Biodistribution Muscle,"1 h p.i., Avg",0.36 % ID/g
same,Biodistribution Pancreas,"1 h p.i., Avg",2.77 % ID/g
same,Biodistribution Seminal,"1 h p.i., Avg",2.82 % ID/g
same,Biodistribution Spleen,"1 h p.i., Avg",0.48 % ID/g
same,Biodistribution Stomach,"1 h p.i., Avg",2.99 % ID/g
same,Biodistribution Tail,"1 h p.i., Avg",0.62 % ID/g
same,Biodistribution Testes,"1 h p.i., Avg",0.53 % ID/g
same,Biodistribution Tumour,"1 h p.i., Avg",5.58 % ID/g
same,Biodistribution Brain,"1 h p.i., single mice",0.03 % ID/g
same,Biodistribution Fat,"1 h p.i., single mice",0.95 % ID/g and 1.21 % ID/g and 0.74 % ID/g and 1.46 % ID/g
same,Biodistribution Intestine,"1 h p.i., single mice",0.43 % ID/g and 0.59 % ID/g and 0.54 % ID/g and 0.64 % ID/g
same,Biodistribution Lung,"1 h p.i., single mice",0.21 % ID/g and 0.28 % ID/g and 0.22 % ID/g and 0.32 % ID/g
same,Biodistribution Muscle,"1 h p.i., single mice",0.36 % ID/g and 0.39 % ID/g and 0.34 % ID/g and 0.35 % ID/g
same,Biodistribution Pancreas,"1 h p.i., single mice",2.32 % ID/g and 2.86 % ID/g and 2.76 % ID/g and 3.17 % ID/g
same,Biodistribution Tail,"1 h p.i., single mice",0.70 % ID/g and 0.47 % ID/g and 0.57 % ID/g and 0.74 % ID/g
same,Biodistribution Testes,"1 h p.i., single mice",0.44 % ID/g and 0.58 % ID/g and 0.51 % ID/g and 0.60 % ID/g
same,Biodistribution Tumour,"1 h p.i., single mice",7.84 % ID/g and 4.16 % ID/g and 4.47 % ID/g and 5.86 % ID/g
same,Biodistribution Adrenals,"2 h p.i., Avg",2.01 % ID/g
same,Biodistribution Blood,"2 h p.i., Avg",0.16 % ID/g
same,Biodistribution Bone,"2 h p.i., Avg",0.12 % ID/g
same,Biodistribution Brain,"2 h p.i., Avg",0.03 % ID/g
same,Biodistribution Fat,"2 h p.i., Avg",0.43 % ID/g
same,Biodistribution Heart,"2 h p.i., Avg",0.72 % ID/g
same,Biodistribution Intestine,"2 h p.i., Avg",0.75 % ID/g
same,Biodistribution Kidney,"2 h p.i., Avg",51.79 % ID/g
same,Biodistribution Liver,"2 h p.i., Avg",0.06 % ID/g
same,Biodistribution Lung,"2 h p.i., Avg",0.12 % ID/g
same,Biodistribution Muscle,"2 h p.i., Avg",0.24 % ID/g
same,Biodistribution Pancreas,"2 h p.i., Avg",2.24 % ID/g
same,Biodistribution Seminal,"2 h p.i., Avg",3.24 % ID/g
same,Biodistribution Spleen,"2 h p.i., Avg",0.26 % ID/g
same,Biodistribution Stomach,"2 h p.i., Avg",2.25 % ID/g
same,Biodistribution Tail,"2 h p.i., Avg",0.31 % ID/g
same,Biodistribution Testes,"2 h p.i., Avg",0.39 % ID/g
same,Biodistribution Tumour,"2 h p.i., Avg",5.36 % ID/g
same,Biodistribution Bone,"2 h p.i., single mice",0.12 % ID/g and 0.08 % ID/g and 0.14 % ID/g and 0.13 % ID/g
same,Biodistribution Brain,"2 h p.i., single mice",0.04 % ID/g and 0.02 % ID/g and 0.03 % ID/g
same,Biodistribution Heart,"2 h p.i., single mice",0.63 % ID/g and 0.61 % ID/g and 0.79 % ID/g and 0.84 % ID/g
same,Biodistribution Intestine,"2 h p.i., single mice",0.78 % ID/g and 0.92 % ID/g and 0.63 % ID/g and 0.68 % ID/g
same,Biodistribution Kidney,"2 h p.i., single mice",62.04 % ID/g and 35.60 % ID/g and 49.89 % ID/g and 59.65 % ID/g
same,Biodistribution Lung,"2 h p.i., single mice",0.16 % ID/g and 0.09 % ID/g and 0.11 % ID/g and 0.14 % ID/g
same,Biodistribution Muscle,"2 h p.i., single mice",0.29 % ID/g and 0.18 % ID/g and 0.22 % ID/g and 0.28 % ID/g
same,Biodistribution Pancreas,"2 h p.i., single mice",2.39 % ID/g and 1.89 % ID/g and 2.21 % ID/g and 2.48 % ID/g
same,Biodistribution Spleen,"2 h p.i., single mice",0.31 % ID/g and 0.18 % ID/g and 0.21 % ID/g and 0.33 % ID/g
same,Biodistribution Tail,"2 h p.i., single mice",0.29 % ID/g and 0.24 % ID/g and 0.36 % ID/g and 0.34 % ID/g
same,Biodistribution Testes,"2 h p.i., single mice",0.41 % ID/g and 0.37 % ID/g and 0.39 % ID/g
same,Biodistribution Tumour,"2 h p.i., single mice",5.03 % ID/g and 4.25 % ID/g and 5.74 % ID/g and 6.41 % ID/g
